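Briefly, cells in 96-well plates were exposed to five compound concentrations for 48 h, and endpoints were estimated by linear interpolation. GI50: concentration for 50% inhibition of growth.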 Active and inactive are the calls of the source. No stated cut-off is given here; in the data, active = GI50 up to about 1.1 µM and inactive = higher. A value given as a limit tells only on which side of the number the result lay.

Among the test systems are HL-60; CAKI-1; HCT-116; SF-268; NCI-H522; RXF 393; M14; SF-539; IGROV-1; SK-OV-3; PC-3; Hs-578T; SNB-75; HOP-92; HT-29; A549; UO-31; U-251; UACC-62; OVCAR-3.
Common to all, as to experiment: growth of human tumour cells (NCI), 48 h

Turning to `Cc1cc(NC(=O)NC(=O)c2ccccc2NC(=O)CN(C)C)ccc1Oc1ncc(Br)cn1`, the GI50 in the experiment on HL-60 was 0.658 µM (active); in the experiment with CAKI-1, 3.68 µM (inactive); in the experiment with HCT-116, 1.85 µM (inactive); with SF-268, 10 µM (inactive); in the experiment with NCI-H522, 1.14 µM (inactive); in the experiment with RXF 393, 1.98 µM (inactive). Moreover, the GI50 in the experiment on M14 is 1.58 µM (inactive); in the experiment on SF-539, 1.56 µM (inactive); in the experiment with IGROV-1, 6.27 µM (inactive); in the experiment with SK-OV-3, 2.81 µM (inactive); with PC-3 it was 1.08 µM (active); with Hs-578T, 1.6 µM (inactive). Also, the GI50 was 1.89 µM (inactive) with SNB-75; 20.3 µM (inactive) with HOP-92; 1.61 µM (inactive) in the experiment with HT-29; 3.54 µM (inactive) in the experiment on A549; 8.55 µM (inactive) in the experiment on UO-31; 3.92 µM (inactive) with U-251. Besides, the GI50 was 2.21 µM (inactive) in the experiment with UACC-62 and 1.04 µM (active) in the experiment with OVCAR-3.

On to `CO/N=C1\CC(C)N2C(=O)C(C(C)C)NC(=O)C(NC(=O)c3c4nc5c(C(=O)NC6C(=O)NC(C(C)C)C(=O)N7C(C)CC(O)C7C(=O)N(C)CC(=O)N(C)C(C(C)C)C(=O)OC6C)ccc(C)c5oc-4c(C)c(=O)c3N)C(CO)OC(=O)C(C)N(C)C(=O)CN(C)C(=O)C12` (stereo not given), for which the GI50 was 0.555 µM (active) in the experiment with HL-60; 4.54 µM (inactive) in the experiment on CAKI-1; 0.321 µM (active) in the experiment with HCT-116; 0.986 µM (active) in the experiment on SF-268; 0.249 µM (active) with NCI-H522; 0.865 µM (active) in the experiment with RXF 393. The GI50 with M14 is 2.26 µM (inactive); with SF-539, 0.348 µM (active); in the experiment with IGROV-1 it was 0.191 µM (active); with SK-OV-3 it was 3.66 µM (inactive); with PC-3, 1.95 µM (inactive); in the experiment with Hs-578T, 0.906 µM (active). For the same compound, the GI50 is 0.883 µM (active) in the experiment on SNB-75; 0.753 µM (active) in the experiment with HOP-92; 0.526 µM (active) in the experiment on HT-29; 0.815 µM (active) in the experiment with A549; 2.23 µM (inactive) in the experiment on UO-31; 0.242 µM (active) in the experiment with U-251. Further, the GI50 in the experiment on UACC-62 was 0.29 µM (active); in the experiment with OVCAR-3, 1.42 µM (inactive).

For `NNC(=O)Nc1nc2ccc(NN)cc2[nH]1`, the GI50 in the experiment on HL-60 is 12.5 µM (inactive); in the experiment with CAKI-1, 41.7 µM (inactive); with HCT-116, 32.8 µM (inactive); in the experiment with SF-268, 37.2 µM (inactive); with NCI-H522 it was 29.6 µM (inactive); in the experiment on RXF 393, 25 µM (inactive). Also, the GI50 with M14 was 31.5 µM (inactive); in the experiment on SF-539 it was 12.6 µM (inactive); with IGROV-1, 42 µM (inactive); in the experiment on SK-OV-3, 40.2 µM (inactive); in the experiment with PC-3 it was 34.4 µM (inactive); in the experiment with Hs-578T it was 33.7 µM (inactive). The GI50 in the experiment on SNB-75 was 25.6 µM (inactive); in the experiment with HOP-92, 19.7 µM (inactive); in the experiment on HT-29 it was 34.5 µM (inactive); with A549, 74 µM (inactive); in the experiment on UO-31 it was 60.5 µM (inactive); in the experiment with U-251 it was 37 µM (inactive). Moreover, the GI50 in the experiment with UACC-62 was 21.1 µM (inactive); in the experiment with OVCAR-3 it was 24.5 µM (inactive).

For the compound `COC1=CC(=O)c2c(c(-c3csc(C)n3)cn2C)C1=O`, the GI50 in the experiment with HL-60 was 2.13 µM (inactive); in the experiment on CAKI-1 it was 29.3 µM (inactive); in the experiment on HCT-116 it was 23.4 µM (inactive); with SF-268 it was 27.2 µM (inactive); with NCI-H522, 18.5 µM (inactive); with RXF 393, 18.3 µM (inactive). Moreover, the GI50 with M14 is 5.58 µM (inactive); in the experiment on SF-539, 17.9 µM (inactive); in the experiment on IGROV-1, 20.7 µM (inactive); in the experiment with SK-OV-3 it was 57.3 µM (inactive); with PC-3, 20.9 µM (inactive); with Hs-578T it was 21.6 µM (inactive). Also, the GI50 was 4.31 µM (inactive) in the experiment with SNB-75; > 100 µM (inactive) in the experiment on HOP-92; 23.1 µM (inactive) in the experiment with HT-29; 2.15 µM (inactive) with A549; 27 µM (inactive) in the experiment on UO-31; 69.7 µM (inactive) in the experiment with U-251. In addition, the GI50 in the experiment on UACC-62 is 12.1 µM (inactive); in the experiment with OVCAR-3, 9.14 µM (inactive).

With `NCCN(CCN)/[N+]([O-])=N/O`, the GI50 in the experiment with HL-60 was > 100 µM (inactive); in the experiment with CAKI-1, > 100 µM (inactive); in the experiment with HCT-116, > 100 µM (inactive); in the experiment on SF-268 it was > 100 µM (inactive); in the experiment on NCI-H522 it was 93.3 µM (inactive); with RXF 393 it was > 100 µM (inactive). Further, the GI50 is 72.8 µM (inactive) in the experiment with M14; > 100 µM (inactive) in the experiment with SF-539; > 100 µM (inactive) with IGROV-1; > 100 µM (inactive) with SK-OV-3; > 100 µM (inactive) with PC-3; > 100 µM (inactive) in the experiment with Hs-578T. Besides, the GI50 in the experiment on SNB-75, in the experiment with HOP-92, in the experiment with HT-29, in the experiment with A549, in the experiment with UO-31 and in the experiment with U-251 was > 100 µM (inactive) throughout. The GI50 with UACC-62 and with OVCAR-3 was > 100 µM (inactive) throughout.

Turning to `N#CC(NCc1cccc(CNC(C#N)c2ccccc2)c1)c1ccccc1` (stereo not given), the GI50 in the experiment on HL-60 is 20.7 µM (inactive); with CAKI-1, > 100 µM (inactive); in the experiment on HCT-116 it was 23.8 µM (inactive); in the experiment with SF-268 it was 52.1 µM (inactive); with NCI-H522 it was 40.3 µM (inactive); in the experiment on RXF 393, 60.4 µM (inactive). For the same compound, the GI50 in the experiment on M14 is 26.1 µM (inactive); in the experiment on SF-539, 0.0261 µM (active); in the experiment with IGROV-1, 18.1 µM (inactive); in the experiment with SK-OV-3, > 100 µM (inactive); in the experiment with PC-3, 42.9 µM (inactive); with Hs-578T it was 32.8 µM (inactive). Further, the GI50 was 28.9 µM (inactive) in the experiment with SNB-75; 34.3 µM (inactive) with HOP-92; 16.4 µM (inactive) in the experiment on HT-29; 28.7 µM (inactive) in the experiment with A549; 94.4 µM (inactive) in the experiment on UO-31; 31.1 µM (inactive) in the experiment with U-251. The figures for the GI50 with UACC-62 and in the experiment on OVCAR-3 were 65.2 µM (inactive) and > 100 µM (inactive), respectively.

Take `COC(=O)C1OC(O[C@H]2CC[C@]3(C)[C@H]4CC=C5[C@@H]6CC(C)(C)CC[C@]6(C(=O)OC6OCC(O)C(O)C6OC6OC(C)C(OC7OCC(O)C(O)C7O)C(OC7OCC(O)(CO)C7O)C6O)[C@H](O)C[C@@]5(C)[C@]4(C)CC[C@H]3C2(C)C)C(O)C(O)C1O` (stereo not given in full): the GI50 is 2.35 µM (inactive) in the experiment with HL-60; 4.69 µM (inactive) in the experiment with CAKI-1; 3.61 µM (inactive) in the experiment with HCT-116; 10 µM (inactive) with SF-268; 2.14 µM (inactive) in the experiment on NCI-H522; 10.9 µM (inactive) with RXF 393. The GI50 in the experiment on M14 is 2.82 µM (inactive); with SF-539, 31.6 µM (inactive); in the experiment on IGROV-1, 12.1 µM (inactive); in the experiment with SK-OV-3, 12.2 µM (inactive); in the experiment on PC-3 it was 3.85 µM (inactive); in the experiment with Hs-578T it was 11.9 µM (inactive). Also, the GI50 in the experiment with SNB-75 was 6.27 µM (inactive); in the experiment on HOP-92, 1.83 µM (inactive); in the experiment on HT-29, 2.54 µM (inactive); in the experiment with A549, 3.52 µM (inactive); in the experiment on UO-31, 1.81 µM (inactive); with U-251, 6.5 µM (inactive). The figures for the GI50 in the experiment with UACC-62 and with OVCAR-3 were 2.51 µM (inactive) and 8.63 µM (inactive), respectively.

In the case of `Cc1ccc(-c2n[nH]c(CC#N)n2)cc1`, the GI50 with HL-60, in the experiment on CAKI-1, in the experiment with HCT-116, in the experiment with SF-268, in the experiment on NCI-H522 and with RXF 393 was > 100 µM (inactive) throughout. For the same compound, the GI50 was > 100 µM (inactive) in the experiment with M14; > 100 µM (inactive) with SF-539; > 100 µM (inactive) in the experiment with IGROV-1; > 100 µM (inactive) in the experiment with SK-OV-3; > 100 µM (inactive) in the experiment on PC-3; 39.7 µM (inactive) in the experiment on Hs-578T. For the same compound, the GI50 with SNB-75, with HOP-92, with HT-29, in the experiment on A549, in the experiment on UO-31 and with U-251 was > 100 µM (inactive) throughout. In addition, the GI50 in the experiment on UACC-62 and with OVCAR-3 was > 100 µM (inactive) each time.

The values are drawn from ChEMBL document CHEMBL1201862, “PubChem BioAssay data set” (2004).
